Entries after “also recorded” stand apart in the source; their conditions may differ. Read-outs that look alike come from different tables or passages of the source.

Assay [1] deals with Cdc42. The experiment in a line: GTPase activation assay, Cdc42. It is filed as cell-based, mouse. On the set-up: dose or concentration left out as unconfirmed. As to the method:
To assess the phosphorlyation status of ERK, […] of whole cell lysates was loaded onto SDS-PAGE, and Western blot analysis was done using anti-p-ERK (Santa Cruz; E-4; sc-7383) and anti-ERK (Santa Cruz; K-23; sc-94) antibodies. To detect active RhoA, Rac1 and Cdc42, generated GST-tagged RhoA binding domain of Rhotekin protein (GST-Rhotekin-RBD) and GST-tagged p21-binding domain of p21-activated kinase 1 (PAK1)(GST-PAK1-PBD) were first generated. Briefly, E. coli BL21 cells transformed with pGEX4T-PAK1-PBD or pGEX4T-Rh,otekin-RBD were grown at 37° C. and expression of recombinant protein was induced by addition of 0.1 mM IPTG for 3 hours. Cells were resuspended in lysis buffer (50 mM Tris-HCl, pH 8.0, 10% glycerol, 20% sucrose, 2 mM DTT, 1 mg/ml leupeptin, 1 mg/ml pepstatin, and 1 mg/ml aprotinin), sonicated, and centrifuged at 4° C. for 30 min at 45,000 g. The supernatant was incubated with glutathione sepharose 4B beads (GE-Amersham, Piscataway, N.J.) for 1 hour at 4° C., and then washed 3 times in lysis buffer. Using these GST-proteins, GTPase activation assays were performed as described. […]

Assay [2] relates to apoE−/− mice. The experiment in a line: Mouse carotid artery injury assay (morphometry, TUNEL, Ki-67, p-ERK staining). It is filed as in vivo. Conditions: for External elastic lamina area / Internal elastic lamina area / Luminal area / Medial area / Neointimal area: 0.15% diet. As to the method: The carotid artery injury assay was performed as described by Kuhel (16). Male apoE−/− mice were obtained from Jackson Laboratory (Bar Harbor, Me.) and maintained on a 12 hour light/dark cycle. All animal experimentation protocols were performed under institutional guidelines of animal welfare, in accordance with NIH guidelines. Mice were fed either normal rodent chow diet (5001, LabDiet) (n=10) or normal chow diet containing 0.15% morelloflavone (w/w) (n=9). This diet corresponded to 200 mg/kg morelloflavone if a 30 gm mouse consumes 4 grams of chow. Mice were placed on these diets for 7 days before they underwent carotid artery denudation by the insertion of an epoxy resin (Epon) probe as described (16).
Briefly, the entire length of the left carotid artery was exposed and the distal bifurcation of the carotid artery was looped proximally and ligated distally with a 7-0 suture. A transverse arteriotomy was made between the 7-0 silk sutures and the resin probe was inserted, advanced toward the aortic arch, and withdrawn 5 times. The probe was then removed, the proximal 7-0 suture was ligated, a 6-0 suture was secured, and the incision was closed with 5-0 sterile surgical gut. After surgery, mice were maintained on these diets 9 for 14 days before they were euthanized. After blood was sampled, the arteries of these mice were perfusion-fixed with 10% buffered formalin (pH 7.0) solution at a constant pressure of 100 mm Hg. The entire neck from each mouse was dissected, fixed further in 10% buffered formalin, decalcified, and then embedded in paraffin. Identical whole neck cross sections of […] were made from the distal side of the neck beginning at the point of the distal 7-0 ligature. Whole neck sections were used to evaluate both the injured and the uninjured control vessels on the same section. For each mouse, the 4 levels of serial sections were taken at […] intervals. These sections were stained by Verhoeff-van Gieson (VVG) staining and subjected to morphometric analyses. Images were digitized and captured using a Sony video connected to a personal computer.
Measurements were performed at a magnification of 200 using a Scion Image analysis computer program (Frederick, Md.). Data were obtained from the first 2 levels where endothelial denudation occurred. For each artery, the luminal area, area inside the internal elastic lamina (IELA), and the area encircled by external elastic lamina-IELA were measured. The intimal area (IA) was calculated as the IELA minus luminal area. For the determination of serum morelloflavone levels, animal sera were first digested by proteinase K in the presence of 0.01% SDS. Morelloflavone was then extracted into ethyl acetate and lyophilized.
For the analyses of intimal cell proliferation, apopotosis and ERK activation, Ki-67, Terminal deoxynucleotidyl transferase (TdT)-deoxyuridine nick-end labeling (TUNEL), and p-ERK staining, respectively, were performed. Ki-67 was detected using a monoclonal rabbit antibody (Clone TEC-3, DAKO North America, Inc., Carpinteria, Calif.) as described (8-9). Terminal deoxynucleotidyl transferase (TdT)-deoxyuridine nick-end labeling (TUNEL) staining (10) was performed using a FragEL™ DNA fragmentation detection kit (Oncogene Research Products, Boston, Mass.) according to the manufacturer's instructions. The Ki-67 and apoptotic indices, defined as the number of cells with DAB-positive nuclei divided by the total number of cells counted and expressed as a percentage, were then calculated. All cells within the intima were counted. Values are expressed as means±SD. Comparisons of parameters between two groups were made with Student's t test. When appropriate, ANOVA was performed to compare multiple groups. A value of P<0.05 was considered statistically significant.

In assay [3] the target is T1, sPLA2-IIA (Homo sapiens, UniProt P14555).
T1 sequence (P14555 21-144): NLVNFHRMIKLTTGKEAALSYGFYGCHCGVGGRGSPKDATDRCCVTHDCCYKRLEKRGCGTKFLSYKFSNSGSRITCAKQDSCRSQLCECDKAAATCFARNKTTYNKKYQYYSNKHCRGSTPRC
The experiment in a line: sPLA2 enzyme activity assay, Group IIA. It is filed as biochemical. Conditions: recombinant human sPLA2-IIA, data not shown. As to the method:
Recombinant human sPLA2 isoforms, Group IB, Group IIA, Group V, and Lp-PLA2 were obtained from R&D Systems and Cayman Chemical Co. sPLA2 enzyme activities in the presence of various concentrations of morelloflavone or other inhibitors were determined using a commercially available assay system according to the manufacturer's instructions (Cayman Chemical Co.). Thioetheramide-1-palmitylthio-2-palmitoylamido-1,2-dideoxy-sn-glycero-3-phosphorylcholine (T-PC) and methyl arachidonyl fluorophosphonate (MAFP) were used as inhibitors of sPLA2 (IB, IIA, and V) and Lp-PLA2, respectively, per manufacturers' instructions.

In general, IC50 refers to the concentration at which inhibition is half-maximal. For the compound `O=C1c2c(O)cc(O)cc2O[C@H](c2ccc(O)cc2)[C@H]1c1c(O)cc(O)c2c(=O)cc(-c3ccc(O)c(O)c3)oc12` [morelloflavone, 5,7, 4′, 5″, 7″, 3″, 4″-heptahydroxy-[3,8″]-flavonylflavanone], the “activation of Cdc42” value in assay [1] is on record as “blocks the activation”. The “activation of Cdc42” value in assay [1] (concentration not given) was “no significant effect; also recorded: without affecting”. In assay [2] (Injured carotid artery), the External elastic lamina area is 103000 ± 14300 µm², the Internal elastic lamina area came to 70000 ± 11100 µm², the Luminal area was determined as 62100 ± 10700 µm² and the Medial area was determined as 39300 ± 15100 µm². For the same compound, the Neointimal area in assay [2] (Injured carotid artery) stood at 7860 ± 4050 µm². Also, the Neointimal area in assay [2] (Injured carotid artery, listed as Morelloflavone) was 7860 ± 4050 µm². Moreover, in assay [2] (Uninjured carotid artery), the External elastic lamina area was 93100 ± 9140 µm², the Internal elastic lamina area turned out to be 62900 ± 5900 µm², the Luminal area was found to be 62300 ± 5900 µm² and the Medial area came out at 30200 ± 14400 µm². This compound registered a Ki-67 indices in assay [2] (neointima of injured carotid artery) of 0.17±0.41%. Besides, the TUNEL indices in assay [2] (neointima of injured carotid artery, index expressed as a percentage) is reported as 16.0±4.6. The “sections with nuclear p-ERK signals in the neointima” value in assay [2] (one out of 8 sections of treated animals) came out at 12.5%. In addition, in assay [2] (oral morelloflavone), the “effect on ERK activation (p-ERK positivity) in the neointima” value is on record as “decreases ERK activation; also recorded: reduced p-ERK positivity; also recorded: less ERK activation”. For the same compound, in assay [2] (oral, 0.15% w/w in chow, 7 days before and 14 days after injury, apoE−/− mice), the “effect on injury-induced neointimal formation (restenosis)” value is given as “significantly less neointimal formation; also recorded: reduced neointimal formation; also recorded: significantly blocked injury-induced neointimal formation; also recorded: blocks restenosis”. For the same compound, the half-inhibitory concentration (IC50) in assay [3] is > 10 µM.

These data come from patent US20110217293A1, “Uses of morelloflavone” (priority 2008, published 2011).
